Experimental data: DBAASP
Converted amounts (≈) assume the structure as drawn.

Columns and labels:
Experiment in all cases: ≥ marks a high value that may be exact or a test limit, other limits are often not marked, values filed in µg/mL are converted to µM
[1] = tested on: Escherichia coli ATCC 25922
[2] = tested on: Candida albicans
[3] = tested on: Staphylococcus aureus ATCC 25923
[4] = tested on: Klebsiella pneumoniae
[5] = tested on: Staphylococcus aureus ATCC 29213
[6] = tested on: Pseudomonas aeruginosa ATCC 27853
[7] = tested on: Candida albicans ATCC 10231
[8] = tested on: Bacillus subtilis
[9] = tested on: Escherichia coli
[10] = tested on: Staphylococcus aureus
[11] = tested on: Bacillus cereus
[12] = tested on: Candida albicans ATCC 90028
[13] = tested on: Staphylococcus epidermidis ATCC 12228
[14] = tested on: Bacillus subtilis ATCC 6633
[15] = tested on: Klebsiella pneumoniae ATCC 700603

MIC [1]	MIC [3]	MIC [6]	MIC [9]	MIC [11]	SMILES	further results
96.1 µM (≈ 256 µg/mL)	> 192 µM				CC[C@H](C)[C@H](NC(=O)CNC(=O)[C@H](CC(N)=O)NC(=O)[C@@H](NC(=O)[C@H](C)NC(=O)[C@H](CC(N)=O)NC(=O)[C@H](CC(C)C)NC(=O)[C@H](C)NC(=O)[C@H](C)NC(=O)[C@H](CCCN=C(N)N)NC(=O)CNC(=O)[C@H](C)NC(=O)[C@H](C)NC(=O)[C@H](C)NC(=O)[C@H](C)NC(=O)[C@H](CCSC)NC(=O)[C@H](CC(=O)O)NC(=O)[C@H](CCCCN)NC(=O)[C@@H](NC(=O)[C@H](CO)NC(=O)[C@H](CO)NC(=O)[C@H](CCCN=C(N)N)NC(=O)[C@H](CC(C)C)NC(=O)[C@@H](N)CO)[C@@H](C)CC)C(C)C)C(=O)N[C@H](C(=O)N[C@@H](CC(N)=O)C(=O)N1CCC[C@H]1C(N)=O)C(C)C [SLRSSIKDMAAAAGRAALNAVNGIVNP]	MIC [2]: 384 µM (≈ 1020 µg/mL); MIC [4]: > 189 µM
		9.39 µM (≈ 19.8 µg/mL)			CC[C@H](C)[C@H](NC(=O)[C@H](CC(C)C)NC(=O)[C@H](CC(C)C)NC(=O)CNC(=O)[C@H](CCCCN)NC(=O)[C@H](CC(C)C)NC(=O)[C@H](CCCCN)NC(=O)[C@@H]1CCCN1C(=O)[C@H](CC(C)C)NC(=O)[C@H](CC(C)C)NC(=O)[C@H](CC(C)C)NC(=O)[C@H](CCCCN)NC(=O)[C@H](CC(C)C)NC(=O)[C@H](CC(C)C)NC(=O)[C@H](CCCCN)NC(=O)[C@@H](N)Cc1ccc(O)cc1)C(=O)N[C@@H](CCCCN)C(=O)N[C@@H](CC(C)C)C(N)=O [YKLLKLLLPKLKGLLIKL]	MIC [5]: 2.32 µM (≈ 4.9 µg/mL); MIC [7]: 77.6 µM (≈ 164 µg/mL)
			4.71 µM (≈ 16.3 µg/mL)		CC(C)C[C@H](NC(=O)[C@H](C)NC(=O)[C@H](CC(C)C)NC(=O)[C@H](CC(N)=O)NC(=O)[C@H](CCCCN)NC(=O)[C@H](Cc1ccccc1)NC(=O)[C@@H](NC(=O)[C@H](CC(=O)O)NC(=O)[C@H](CC(C)C)NC(=O)[C@H](Cc1ccccc1)NC(=O)CN)[C@@H](C)O)C(=O)N[C@@H](CC(N)=O)C(=O)N[C@@H](C)C(=O)N[C@@H](C)C(=O)N[C@@H](CCCCN)C(=O)N[C@@H](CO)C(=O)N[C@@H](C)C(=O)NCC(=O)N[C@H](C(=O)N[C@@H](CO)C(=O)N[C@H](C(=O)N[C@@H](CC(C)C)C(=O)N[C@@H](CC(N)=O)C(=O)N[C@@H](CO)C(=O)N[C@@H](CC(C)C)C(=O)N[C@@H](CO)C(=O)N[C@H]1CSSC[C@@H](C(=O)O)NC(=O)[C@H]([C@@H](C)O)NC(=O)[C@H](CCCCN)NC(=O)[C@H](Cc2ccccc2)NC(=O)[C@H](CC(C)C)NC(=O)[C@H](CCCCN)NC1=O)C(C)C)C(C)C [GFLDTFKNLALNAAKSAGVSVLNSLSCKLFKTC]	MIC [8]: 2.36 µM (≈ 8.16 µg/mL); MIC [10]: 2.36 µM (≈ 8.16 µg/mL); MIC [2]: 1.18 µM (≈ 4.08 µg/mL)
			> 124 µM	≥ 124 µM	CC[C@H](C)[C@H](NC(=O)[C@H](CC(C)C)NC(=O)[C@H](CO)NC(=O)[C@@H]1CCCN1C(=O)[C@@H](NC(=O)[C@@H](NC(=O)[C@H](CCCCN)NC(=O)[C@H](CO)NC(=O)[C@H](C)NC(=O)[C@@H](NC(=O)[C@H](CCCN=C(N)N)NC(=O)CNC(=O)[C@@H](NC(=O)[C@@H](N)C(C)C)C(C)C)C(C)C)C(C)C)C(C)C)C(=O)NCC(=O)N[C@@H](CC(C)C)C(=O)N[C@@H](Cc1ccccc1)C(=O)N[C@H](C(=O)N[C@H](C(=O)N[C@@H](CCCCN)C(=O)O)[C@@H](C)O)[C@@H](C)O [VVGRVASKVVPSLIGLFTTK]	
			> 128 µM	≥ 128 µM	CC[C@H](C)[C@H](NC(=O)[C@@H](NC(=O)[C@H](CO)NC(=O)[C@@H]1CCCN1C(=O)[C@@H](NC(=O)[C@@H](NC(=O)[C@H](CCCCN)NC(=O)[C@H](CO)NC(=O)[C@H](C)NC(=O)[C@@H](NC(=O)CNC(=O)[C@H](Cc1ccccc1)NC(=O)[C@@H](NC(=O)[C@@H](NC(=O)[C@@H](N)CO)C(C)C)C(C)C)C(C)C)C(C)C)C(C)C)C(C)C)C(=O)NCC(=O)N[C@@H](CCCCN)C(=O)N[C@H](C(=O)N[C@@H](CCCCN)C(=O)N[C@H](C(=O)O)[C@@H](C)O)C(C)C [SVVFGVASKVVPSVIGKVKT]	
25 µM (≈ 64.3 µg/mL)	3 µM (≈ 7.71 µg/mL)				CC[C@H](C)[C@H](NC(=O)[C@H](C)NC(=O)CNC(=O)[C@H](CC(C)C)NC(=O)[C@@H](N)Cc1ccccc1)C(=O)N[C@@H](C)C(=O)NCC(=O)N[C@H](C(=O)N[C@@H](C)C(=O)N[C@@H](C)C(=O)N[C@@H](CCCCN)C(=O)N[C@@H](Cc1ccccc1)C(=O)N[C@@H](CC(C)C)C(=O)N1CCC[C@H]1C(=O)N[C@@H](CCCCN)C(=O)N[C@H](C(=O)N[C@@H](Cc1ccccc1)C(=O)N[C@H]1CSSC[C@@H](C(=O)O)NC(=O)[C@H](CCCCN)NC(=O)[C@H](CCCCN)NC(=O)[C@H]([C@@H](C)O)NC(=O)[C@H]([C@@H](C)CC)NC(=O)[C@H](Cc2ccccc2)NC1=O)C(C)C)C(C)C [FLGAIAGVAAKFLPKVFCFITKKC]	MIC [12]: 3 µM (≈ 7.71 µg/mL)
50 µM (≈ 102 µg/mL)	50 µM (≈ 102 µg/mL)	50 µM (≈ 102 µg/mL)			CC(=O)N[C@@H](CC(C)C)C(=O)N[C@@H](Cc1ccccc1)C(=O)N[C@@H](CCCCN)C(=O)N[C@@H](CCCCN)C(=O)N[C@@H](CC(N)=O)C(=O)N[C@@H](CCCCN)C(=O)N[C@@H](CC(C)C)C(=O)N[C@@H](Cc1c[nH]c2ccccc12)C(=O)N[C@@H](Cc1ccccc1)C(=O)N[C@@H](CCCCN)C(=O)N[C@@H](CO)C(=O)N[C@@H](CCCCN)C(=O)N[C@@H](CCCCN)C(=O)N[C@@H](Cc1c[nH]c2ccccc12)C(=O)N[C@@H](CC(C)C)C(N)=O [LFKKNKLWFKSKKWL]	MIC [13]: 25 µM (≈ 50.9 µg/mL); MIC [14]: 6.4 µM (≈ 13 µg/mL); MIC [15]: 50 µM (≈ 102 µg/mL)
			> 120 µM	≥ 120 µM	CSCC[C@H](NC(=O)[C@H](CO)NC(=O)[C@H](Cc1ccccc1)NC(=O)[C@@H](NC(=O)[C@H](CO)NC(=O)[C@@H]1CCCN1C(=O)[C@@H](NC(=O)[C@@H](NC(=O)[C@H](CCCCN)NC(=O)[C@H](CO)NC(=O)[C@H](C)NC(=O)[C@H](CC(C)C)NC(=O)[C@H](CO)NC(=O)[C@H](Cc1ccccc1)NC(=O)[C@H](CC(C)C)NC(=O)[C@H](C)N)C(C)C)C(C)C)C(C)C)C(=O)N[C@H](C(=O)N[C@H](C(=O)N[C@@H](CCCCN)C(=O)N[C@@H](CCCCN)C(=O)O)[C@@H](C)O)C(C)C [ALFSLASKVVPSVFSMVTKK]	
			> 122 µM	≥ 122 µM	CC[C@H](C)[C@H](NC(=O)[C@H](CC(C)C)NC(=O)[C@H](CO)NC(=O)[C@@H]1CCCN1C(=O)[C@@H](NC(=O)[C@@H](NC(=O)[C@H](CCCCN)NC(=O)[C@H](CO)NC(=O)[C@H](C)NC(=O)[C@@H](NC(=O)[C@H](CO)NC(=O)[C@H](Cc1ccccc1)NC(=O)[C@@H](NC(=O)[C@@H](NC(=O)[C@@H]1CCCN1)C(C)C)C(C)C)C(C)C)C(C)C)C(C)C)C(=O)N[C@@H](CO)C(=O)N[C@@H](C)C(=O)N[C@@H](CC(C)C)C(=O)N[C@@H](CCCCN)C(=O)N[C@@H](CCCN=C(N)N)C(=O)O [PVVFSVASKVVPSLISALKR]	
20 µM (≈ 30.6 µg/mL)		40 µM (≈ 61.2 µg/mL)			CC[C@H](C)[C@H](NC(=O)[C@H](CCCN=C(N)N)NC(=O)[C@H](CCC(N)=O)NC(=O)[C@@H](NC(=O)[C@@H](NC(=O)[C@H](CCCN=C(N)N)NC(=O)[C@@H](N)CCCCN)[C@@H](C)CC)C(C)C)C(=O)N[C@@H](CCCCN)C(=O)N[C@@H](CC(=O)O)C(=O)N[C@@H](Cc1ccccc1)C(=O)N[C@@H](C)C(=O)N[C@@H](CCCN=C(N)N)C(=O)O [KRIVQRIKDFAR]	MIC [5]: 40 µM (≈ 61.2 µg/mL); MIC [12]: ≥ 40 µM
